Test results: PMC5562305, “Impact of novel palmitoylated prolactin-releasing peptide analogs on metabolic changes in mice with diet-induced obesity” (PLoS ONE, 2017)
Starred links: 1 amine or outer side, 2 acyl side, 3 side chain; linkers in the order of their positions; H or OH if unused. Residues, ends and D or L forms follow the SMILES beside them. Groups on a side chain read outwards from the residue. *: point of attachment. TTDA(Palmitoyl) = CCCCCCCCCCCCCCCC(=O)NCCCOCCOCCOCCCN*; Suc = O=C(CCC(=O)[*:2])[*:1]

Test system: urinary metabolites
Test: NMR-based metabolomics of urine of DIO mice
Type: in vivo, C57BL/6 mice
Set-up: key to DMA, Mean / DMG, Mean / MA, Mean / TMA, Mean / acetate, Mean / allantoin, Mean / carnitine, Mean / choline, Mean / cis-aconitate, Mean / creatine+creatinine, Mean / creatine, Mean / creatinine, Mean / ethanolamine, Mean / formate, Mean / galactose, Mean / glucose, Mean / glycine, Mean / lactate, Mean / succinate, Mean / vinylacetylglycine, Mean: TSA-normalized intensity of the metabolite's representative NMR signal
Conditions: urine of DIO mice, NMR metabolomics
Description: Urine samples for NMR-based metabolomics were collected prior to the start of the interventions and at the end of the experiment. For overnight urine collection (from 5 pm to 8 am), the mice were housed in individual metabolic cages (Tecniplast, Buguggiate, Italy) without access to food. Samples were collected with the addition of NaN3 and stored at -80°C until NMR analysis.
The urine samples were thawed at room temperature and centrifuged at 13 684 x g for 5 min prior to the NMR experiments. A 200-μl aliquot of supernatant was diluted with 340 μl of H2O mixed with 60 μl of phosphate buffer (1.5 M KH2PO4 in D2O containing 2 mM NaN3 and 0.1% trimethylsilyl propionic acid (TSP), pH 7.4) and transferred to a 5-mm NMR tube. The NMR data were acquired with a 600 MHz Bruker Avance III spectrometer (Bruker BioSpin, Rheinstetten, Germany) equipped with a 5-mm TCI cryogenic probe head. All of the experiments were performed at 300 K. Automatic tuning, matching, shimming and adjusting of the 90° pulse length were performed for each sample.
As mouse urine naturally contains urinary proteins, the NMR spectra were acquired using a Carr-Purcell-Meiboom-Gill (CPMG) pulse sequence with water presaturation (Bruker pulse sequence cpmgpr1d) to eliminate the strong protein background. […] For better metabolite identification, a short J-resolved experiment with presaturation (NS = 2, SW = 16 ppm, TD = 8k, number of increments = 40, SW = 78.125 Hz in the indirect dimension, and relaxation delay = 2 s) was executed for all samples. Additional two-dimensional ^1H-^1H correlation spectroscopy (COSY) and ^1H-^13C heteronuclear multiple-quantum correlation (HMQC) experiments (Bruker pulse sequences cosygpprqf and hmqcphpr) were performed for selected samples.
The acquired data were processed using Topspin 3.2 software (Bruker BioSpin, Rheinstetten, Germany). Line broadening of 0.3 Hz was applied on free induction decays (FIDs) prior to Fourier transformation. The spectra were automatically phased, baseline corrected and referenced to the signal of TSP (0.00 ppm).
The assignment of individual metabolites was achieved by comparing the proton spectra with the spectra of pure metabolites using Chenomx NMR Suite 7.6 (Chenomx Inc., Edmonton, AB, Canada), the HMDB database and previously published metabolomic data. The identification of metabolites was supported through J-resolved and COSY experiments and, if possible, confirmed using carbon chemical shifts extracted from the HMQC spectra.
For quantitation of individual metabolites, the CPMG spectra were uniformly binned in the range of 0.10–10.00 ppm to 0.01-ppm intervals using AMIX software (Bruker BioSpin, Rheinstetten, Germany). This procedure reduced the dimensionality of the data, eliminated chemical shift variations and thus simplified the reproducible automatic quantification. Regions corresponding to water (4.60–4.90 ppm) and urea (5.60–6.00 ppm) were removed prior to analysis. As the dilutions of the original urine samples differed (due to the differences in water intake during urine collection), all of the spectra were normalized to the total spectral area (TSA). For each identified metabolite, one representative signal was chosen and then quantified as the sum of appropriate adjacent 0.01-ppm bins to cover the whole signal width. The metabolite concentration was expressed as the TSA-normalized intensity of the respective signal. For selection of an appropriate statistical method (parametric or non-parametric) the Lilliefors test of normality was performed. […] Metabolite alterations with a P < 0.05 were considered statistically significant. Statistical analysis was performed using Matlab software (“MATLAB version 8.6 (R2015b). Natick, Massachusetts: The MathWorks Inc., 2015.,” n.d.). […]

[1] = difference of analog mean vs saline mean

`CCCCCCCCCCCCCCCC(=O)NCCCOCCOCCOCCCNC(=O)CCC(=O)NCCCC[C@H](NC(=O)[C@@H](NC(=O)[C@H](CCC(=O)O)NC(=O)[C@H](CCSC)NC(=O)[C@H](CO)NC(=O)[C@H](Cc1c[nH]cn1)NC(=O)[C@H](CCCNC(=N)N)NC(=O)[C@H](Cc1c[nH]cn1)NC(=O)[C@@H](NC(=O)[C@H](CCCNC(=N)N)NC(=O)[C@H](CO)NC(=O)CCC(=O)NCCCOCCOCCOCCCNC(=O)CCCCCCCCCCCCCCC)[C@@H](C)O)[C@@H](C)CC)C(=O)N[C@H](C(=O)N1CCC[C@H]1C(=O)N[C@@H](CC(=O)O)C(=O)N[C@H](C(=O)N[C@@H](CC(N)=O)C(=O)N1CCC[C@H]1C(=O)N[C@@H](C)C(=O)N[C@@H](Cc1c[nH]c2ccccc12)C(=O)N[C@@H](Cc1ccc(O)cc1)C(=O)N[C@@H](C)C(=O)N[C@@H](CO)C(=O)N[C@@H](CCCNC(=N)N)C(=O)NCC(=O)N[C@H](C(=O)N[C@@H](CCCNC(=N)N)C(=O)N1CCC[C@H]1C(=O)N[C@H](C(=O)NCC(=O)N[C@@H](CCCNC(=N)N)C(=O)N[C@@H](Cc1ccccc1)C(N)=O)C(C)C)[C@@H](C)CC)[C@@H](C)CC)[C@@H](C)O` [analog 3] ({TTDA(Palmitoyl)-Suc}-SRTHRHSMEIK([Suc-TTDA(Palmitoyl)])TPDINPAWYASRGIRPVGRF-NH2) was tested, and the “creatine, Saline/analog %” value [1] was 0.053%, the “creatinine, Saline/analog %” value [1] was 0.053% and the “ethanolamine, Saline/analog %” value [1] was 0.053%. For the same compound, the “formate, Saline/analog %” value [1] was 0.00334%, the “fumarate, Saline/analog %” value [1] was -0.141% and the “galactose, Saline/analog %” value [1] was -0.254%. The “glucose, Saline/analog %” value [1] was -0.116%, the “glycine, Saline/analog %” value [1] was -0.035% and the “hexanoylglycine + acids (0.88 ppm), Saline/analog %” value [1] was 0.165%. The “hippurate (7.55 ppm), Saline/analog %” value [1] was -0.140%, the “hippurate (7.64 ppm), Saline/analog %” value [1] was -0.133% and the “hippurate (7.84 ppm), Saline/analog %” value [1] was -0.124%. The “lactate, Saline/analog %” value [1] was 0.112%, the “multiplet acids (1.6 ppm), Saline/analog %” value [1] was 0.172% and the “putrescin, Saline/analog %” value [1] was -0.021%. For the same compound, the “succinate, Saline/analog %” value [1] was -0.140%, the “taurine (3.27 ppm), Saline/analog %” value [1] was -0.063% and the “taurine (3.43 ppm), Saline/analog %” value [1] was -0.093%. The “trigonelline (8.84 ppm), Saline/analog %” value [1] was -0.159%, the “trigonelline (9.13 ppm), Saline/analog %” value [1] was -0.171% and the “vinylacetylglycine, Saline/analog %” value [1] was 0.175%. For the same compound, the “2-OG (2.45 ppm), Mean” value (group mean) was 11.878, the “2-OG (3.01 ppm), Mean” value (group mean) was 10.469 and the “2-PY (8.33 ppm), Mean” value (group mean) was 1.098. For the same compound, the “3-indoxylsulfate (7.51 ppm), Mean” value (group mean) was 1.344, the “3-indoxylsulfate (7.71 ppm), Mean” value (group mean) was 0.810 and the “4-PY (7.97 ppm), Mean” value (group mean) was 2.017. For the same compound, the “4-PY (8.55 ppm), Mean” value (group mean) was 0.633, the “DMA, Mean” value (group mean) was 5.618 and the “DMG, Mean” value (group mean) was 1.853. For the same compound, the “MA, Mean” value (group mean) was 3.016, the “MNA (8.90 ppm), Mean” value (group mean) was 0.487 and the “MNA (8.97 ppm), Mean” value (group mean) was 0.470. The “MNA (9.265 ppm), Mean” value (group mean) was 0.490, the “MNA-Nox (7.75 ppm), Mean” value (group mean) was 0.972 and the “MNA-Nox (8.13 ppm), Mean” value (group mean) was 0.792. The “MNA-Nox (8.49 ppm), Mean” value (group mean) was 0.511, the “MNA-Nox (8.75 ppm), Mean” value (group mean) was 0.485 and the “N-carbamoylalanine (2.38 ppm), Mean” value (group mean) was 11.854. For the same compound, the “N-carbamoylalanine (3.31 ppm), Mean” value (group mean) was 9.499, the “N-isovalerylglycine + oxovalerate (0.92 ppm), Mean” value (group mean) was 16.056 and the “TMA, Mean” value (group mean) was 11.780. For the same compound, the “acetate, Mean” value (group mean) was 3.429, the “allantoin, Mean” value (group mean) was 22.447 and the “carnitine, Mean” value (group mean) was 6.067. The “choline, Mean” value (group mean) was 1.970, the “cis-aconitate, Mean” value (group mean) was 8.481 and the “citrate (2.55 ppm), Mean” value (group mean) was 29.434. For the same compound, the “citrate (2.69 ppm), Mean” value (group mean) was 26.220, the “creatine+creatinine, Mean” value (group mean) was 24.904 and the “creatine, Mean” value (group mean) was 7.343. For the same compound, the “creatinine, Mean” value (group mean) was 11.686, the “ethanolamine, Mean” value (group mean) was 8.370 and the “formate, Mean” value (group mean) was 0.199. For the same compound, the “fumarate, Mean” value (group mean) was 0.151, the “galactose, Mean” value (group mean) was 0.578 and the “glucose, Mean” value (group mean) was 3.207. The “glycine, Mean” value (group mean) was 5.874, the “hexanoylglycine + acids (0.88 ppm), Mean” value (group mean) was 15.361 and the “hippurate (7.55 ppm), Mean” value (group mean) was 3.987. For the same compound, the “hippurate (7.64 ppm), Mean” value (group mean) was 2.057, the “hippurate (7.84 ppm), Mean” value (group mean) was 4.311 and the “lactate, Mean” value (group mean) was 6.853. The “multiplet acids (1.6 ppm), Mean” value (group mean) was 12.521, the “putrescin, Mean” value (group mean) was 8.726 and the “succinate, Mean” value (group mean) was 9.267. For the same compound, the “taurine (3.27 ppm), Mean” value (group mean) was 24.146, the “taurine (3.43 ppm), Mean” value (group mean) was 20.508 and the “trigonelline (8.84 ppm), Mean” value (group mean) was 0.263. The “trigonelline (9.13 ppm), Mean” value (group mean) was 0.106 and the “vinylacetylglycine, Mean” value (group mean) was 3.527.
